Experimental data reported in patent US11478442B2, “Pharmaceutical compositions comprising DGLA and use of same” (DS Biopharma Limited, priority 2014, dated 2022).
Where two headings read alike, the source gives them in different places.

How the values were obtained:
[1] = test system: spontaneous hypertensive rats; assay: Anti-hypertension efficacy of DGLA and aspirin in spontaneous hypertensive rats with phenylephrine challenge; format: in vivo, rat; conditions: for effect on mean systemic arterial pressure (in words): aspirin-fed rats
Experimental: An in vivo investigation of anti-hypertension efficacy following co-administration of DGLA and aspirin in spontaneous hypertensive rats was conducted. This experiment investigated the efficacy of DGLA when co-administered chronically with aspirin to reduce the hypertensive response induced acutely by phenylephrine in spontaneous hypertensive rats. Spontaneously hypertensive adult male rats (250-300 g), bred by Charles River Laboratories, were used for this assay. The animals were identified upon arrival as per CCPA guidelines. The animals were pair-housed by group (low dose+ Aspirin, high dose+ Aspirin or Aspirin alone) for the duration of the oral gavage prior to surgery. All animal care and vivarium maintenance was recorded, with documents kept at the test facility.
The concentrations of DGLA to be tested (50 and 500 mg/kg) as well as the concentration of aspirin (10 mg/kg) were selected by the Sponsor based on information available at the time of design of this study. They were selected to cover a range of concentrations useful for the identification of the mechanism of action of the test article.
All solution preparations were documented on a Solution Contents Form, defining labelling information and all relevant information on reagents: batch number, storage conditions, contents, and preparation/expiry dates.
The test article was formulated using olive oil as the vehicle. This stock solution was then administered by oral gavage once per day for seven consecutive days. A low and a high dose (50 mg/kg and 500 mg/kg) were tested.
A 5 mg/ml stock solution of Aspirin was prepared by dissolving the appropriate amount of aspirin in 100% DMSO which was then diluted in water. The concentration of DMSO was less than 1%. The appropriate volume was administered by oral gavage to each animal once per day for seven consecutive days. The stock solution was stored at room temperature and was considered stable for the duration of the gavage.
The appropriate volume was administered to each animal by an intravenous injection at the end of the experiment on the surgery day. The stock solution was stored at 4° C. and was considered stable for the duration of the experiment.
Male spontaneous hypertensive rats weighing approximately 300 g arrived at the facility at least two days before beginning the oral gavage. Animals were assigned to one of three groups (low dose+ aspirin, high dose+ aspirin, and aspirin), and were pair-housed during the acclimation period. Each group (n=4) received the appropriate compound by oral gavage using a 16G feeding needle. The stock solution was administered once per day for seven consecutive days. On the seventh day of administration, the animals underwent surgery and hypertensive monitoring.
Rats were anesthetized with a 2.5-3.0% isoflurane-O2 mixture in an induction box. When the animals were removed from the induction box, they were connected onto a nose cone to maintain anesthesia during the tracheotomy. The animals were tracheotomised with an endotracheal tube (7 cm length from connector to the tip made with a PE205 tube from BD and a 16G needle) to facilitate spontaneous breathing, stabilize hemodynamics, and to keep the rat under anesthesia with an isoflurane-O2 mixture. Two catheters were inserted: one in the right femoral artery for systemic arterial pressure (SAP) measurement, and one in the right femoral vein for delivery of the hypertensor and positive control. ECG signals were acquired with ECG contacts placed in a Lead-1 configuration on the anaesthetized animal, and a pulse oxymeter was attached to the animal's hind paw to enable continuous monitoring of the general condition of the rat during the surgical. Following baseline measurements, three doses of phenylephrine (3, 10 and 20 μg/kg) were delivered by an IV bolus injection, leaving 5 minutes between doses. […] After the positive control, 10 μg/kg of phenylephrine was administered again.

[2] = in vivo
Experimental: In Part one of the study, plasma PK analysis of Dihomo-Gamma-Linolenic Acid (DGLA) and 15-Hydroxyeicosatrienoic acid (15-HETrE), in fasted subjects alone, was performed for Cohorts one to four up to 312 hours post dose on study Days 1 to 5, 8, 14, and the follow-up visit. In Part two, plasma PK analysis of DGLA was performed for Cohorts five and six up to 168 hours post dose on study Days 1, 2, 3, 5, and 8. Safety assessments were monitored throughout the study.
Analysis of plasma concentrations of DGLA (free and total) and free 15-HETrE were performed in blood samples obtained from the subjects.
Analysis of all plasma and skin blister fluid samples was performed using validated methods. Concentrations of free and total DGLA were measured in plasma and skin blister fluid by liquid chromatography with tandem mass spectrometry (LC/MS/MS); the quantitation range was 100 to 10,000 ng/mL for free DGLA and 5000 to 500,000 ng/mL for total DGLA. Plasma concentrations of free 15-HETrE were measured by LC/MS/MS with a quantitation range of 100 to 10,000 ng/mL.

[3] = Phase one study, multiple dose: free and total DGLA in skin blister fluid; format: in vivo, human
Source text: The PK of DGLA in human skin following multiple doses of DS107G capsule given once daily for 28 days to healthy subjects.

[4] = Phase one study, multiple dose (28 days): plasma pharmacokinetics of total DGLA incl. steady state; format: in vivo, human; conditions: for half-life: 2000 mg, 2000 mg dose cohort, read-out: Median total DGLA elimination t½ (converted); for Peak Trough Fluctuation (PTF), mean (Table 24, total DGLA): steady-state, Day 28 (0-24 hours)
Experimental: (§1) A single-center, double-blind, randomized, placebo-controlled, two part Phase one study was performed in healthy male and female subjects aged 18 to 45 years inclusive. The primary objective of this study was to assess the safety and plasma pharmacokinetics (PK) of orally administered single doses and orally administered multiple doses of DS107G capsules (once daily for 28 days) in healthy subjects.
(§2) Multiple dose part two of the study comprised two cohorts (Cohorts five and six) of eight subjects each, who were administered multiple doses of study drug in the fasted state for 28 days. Subjects in Cohorts five and six received DS107G 2000 or 4000 mg, respectively, or matching placebo once daily for 28 days. Cohort six was started after Cohort five safety data were evaluated by the SMC. No interim analysis was planned.
(§3) Safety assessments were monitored throughout the study.
(§4) In Part two of the study (Cohorts five and six), subjects were administered study drug (500-mg DS107G capsules or matching placebo capsules) once daily in the fasted state for 28 days. Subjects in Cohort five received study drug first and, if they tolerated the 2000-mg daily dose for the first 14 days, subjects in Cohort six were started on the 4000-mg daily dose for 28 days.
(§5) PK parameter was computed after correcting the dosed DGLA concentrations with baseline DGLA concentrations.

[5] = Phase one study, multiple dose (28 days): plasma pharmacokinetics of free DGLA incl. steady state; format: in vivo, human
Experimental: as §1, §2, §3, §4, §5

[6] = Phase one study, food effect: single 1000 mg dose fasted vs fed, plasma pharmacokinetics of free and total DGLA; format: in vivo, human; conditions: for Tmax: human, plasma, oral, 1000 mg, read-out: total DGLA tmax, median
Experimental: The effect of food on the PK of an orally administered single dose of DS107G capsule in healthy subjects.
Subjects were randomly assigned in a 3:1 ratio of DG107G to placebo by block randomization. Single dose part one of the study comprised three cohorts of eight subjects each, with the addition of Cohort four based on evaluation of the safety data of Cohort three by the Safety Monitoring Committee (SMC). A single oral dose of DS107G or matching placebo was administered to fasted subjects in Cohorts one to three (500, 1000, and 2000 mg, respectively) in parallel; subjects in Cohort four were administered a dose of 4000 mg following completion of Cohort three. Subjects in Cohort two received 1000 mg or matching placebo in the fed state at 14 days after the first dose.
Food effect was evaluated in Cohort two at least 14 days after the first dose at which time a second single dose was administered. Subjects were administered a 1000-mg dose of study drug with 240 mL of water after a 10-hour fasting period and 30 minutes after starting consumption of a meal. Subjects then refrained from food intake for at least 4 hours after dosing. Food consumption was standardized for at least 12 hours after dosing using a standardized high-fat meal (800 to 1000 kcal with 500 to 600 kcal from fat and 250 kcal from carbohydrates). A typical standard test meal consisted of two eggs fried in butter, two strips of bacon, two slices of toast with butter, 120 mL of hash brown potatoes, and 240 mL of whole milk.
Subjects in Cohort two undergoing evaluation of the food effect on oral 1000 mg DGLA capsules were restricted from food consumption for at least 4 hours after dosing. Food consumption was standardized for at least 12 hours post dose using a standardized high-fat meal.

[7] = concentrations from Days 1, 8, 14 and 28
[8] = DGLA 50 mg/kg gavage 7 days, before intravenous phenylephrine

SMILES: COc1ccccc1OCCNCC(O)COc1cccc2[nH]c3ccccc3c12 (stereo not shown) [Carvedilol, reference compound]
- effect on mean systemic arterial pressure (in words) ([1]; carvedilol 0.1 mg/kg iv after phenylephrine): significant decrease
- effect on blood pressure (in words) ([1]; carvedilol 0.1 mg/kg iv, DGLA + aspirin-fed animals): significant decrease in blood pressure

SMILES: CNC[C@H](O)c1cccc(O)c1 [phenylephrine, reference compound]
- effect on mean systemic arterial pressure (in words) ([1]; phenylephrine 3, 10, 20 μg/kg iv): increased mean systemic arterial pressure with increasing doses

SMILES: CCCCC[C@H](O)/C=C/C=C\C/C=C\CCCCCCC(=O)O [Batch 15-HETrE, 15-Hydroxyeicosatrienoic acid]
- plasma free 15-HETrE concentration [2]: < 100 ng/m L

SMILES: CCCCC/C=C\C/C=C\C/C=C\CCCCCCC(=O)O [DGLA, Dihomo gamma linolenic acid]
- Mean total DGLA concentrations in skin blister fluid, Day 28 vs Day 1 ([3]; 2000 mg daily): about 2.5 fold
- Mean total DGLA concentrations in skin blister fluid, Day 28 vs Day 1 ([3]; 4000 mg daily): ~3 fold
- change of mean free DGLA concentrations in skin blister fluid with a doubling in dose (in words) [3, 7]: approximately doubled
- increase of mean total DGLA concentrations in skin blister fluid with a doubling in dose [3, 7]: about 1.4 fold
- half-life ([4]; both sexes, human, plasma, oral, Day 1, assessed over 24 hours): 34.4 h
- half-life ([4]; both sexes, human, plasma, oral, Day 28, assessed over 24 hours): 44 h
- half-life ([4]; both sexes, human, plasma, oral, Day 28, evaluated over 0 to 168 hours): 62.6 h
- Tmax ([4]; both sexes, human, plasma, oral, with multiple doses, both dose cohorts, read-out: total DGLA Median T (tmax)): 8 to 10 h
- Peak Trough Fluctuation (PTF), mean (Table 24, total DGLA) ([4]; first of both dose cohorts (2000 mg)): 62.5%
- Peak Trough Fluctuation (PTF), mean (Table 24, total DGLA) ([4]; second of both dose cohorts (4000 mg)): 44.9%
- free DGLA mean accumulation ratio (AR) for AUC ([5]; 2000 mg daily): ~3.3
- free DGLA mean accumulation ratio (AR) for Cmax ([5]; 2000 mg daily): ~2.8
- free DGLA mean accumulation ratio (AR) for AUC ([5]; 4000 mg daily): ~1.6
- free DGLA mean accumulation ratio (AR) for Cmax ([5]; 4000 mg daily): ~1.4
- day by which plasma concentrations reached steady-state ([5]; 2000 and 4000 mg daily, free and total DGLA): ~14 days
- time after dosing at which mean concentrations of free DGLA peaked ([5]; Days 1 and 28, 2000 and 4000 mg daily): about 4 hours
- free DGLA Cmax occurred sooner (median) under fasted than fed conditions [6]: 1 h
- Tmax ([6]; fasted): 8 h
- Tmax ([6]; fed): 15 h
- Diastol arterial pressure [1, 8]: 75 mm Hg
- Systol arterial pressure [1, 8]: 120 mm Hg
- Diastol arterial pressure ([1]; DGLA 500 mg/kg gavage 7 days, before intravenous phenylephrine): 80 mm Hg
- effect on arterial pressure in spontaneously hypertensive rats (in words) ([1]; DGLA alone, 50 or 500 mg/kg gavage 7 days): successfully decreases the arterial pressure

SMILES: CC(=O)Oc1ccccc1C(=O)O [Aspirin, reference compound]
- Mean Arterial Pressure, Average ([1]; Aspirin 10 mg/kg/day gavage 7 days, Baseline): 136.8 mm Hg
